Data reported in paper PMC8253220, “Molecular design, synthesis and in vitro biological evaluation of thienopyrimidine–hydroxamic acids as chimeric kinase HDAC inhibitors: a challenging approach to combat cancer” (Journal of Enzyme Inhibition and Medicinal Chemistry, 2021).
Where “and” joins values, the source holds several entries; their conditions need not be identical. Equal values may be shown once.

Assays:
Experiment in all cases: NCI one-dose screen
Format in all cases: cell-based, human
OVCAR-3 = details: Ovarian OVCAR-3, 10 µM single dose
Procedure: (§1) All of the synthesised structures were selected and submitted to NCI based on computer modelling techniques and the degree of diversity of structures for the evaluation of their antiproliferative activity. The 20 synthesised compounds were selected with their respective NCI codes [NCS D-820157- NCS D-820176] for the inhibition percent assay at an initial single dose of 10 μM on the full NCI 60 cell panel, where the mean graph of the percent growth for all compounds on the full NCI cell panel is evaluated, compared to the untreated control cells (Supplementary Material). In vitro cell line inhibition % of all synthesised compounds is represented in (Table 1 of Supplementary Material).
(§2) All of the synthesised compounds (20) were submitted to NCI and selected for in vitro anticancer assay against a panel of 60 cancer cell lines. The methodology of assay and calculations is as reported.

HOP-92 = details: NSCLC HOP-92, 10 µM single dose
Procedure: as §1, §2

SF-295 = details: CNS SF-295, 10 µM single dose
Procedure: as §1, §2

SW-620 = details: Colon SW-620, 10 µM single dose
Procedure: as §1, §2

A549/ATCC = details: NSCLC A549/ATCC, 10 µM single dose
Procedure: as §1, §2

HS 578T = details: Breast HS 578T, 10 µM single dose
Procedure: as §1, §2

DU-145 = details: Prostate DU-145, 10 µM single dose
Procedure: as §1, §2

TK-10 = details: Renal TK-10, 10 µM single dose
Procedure: as §1, §2

CAKI-1 = details: Renal CAKI-1, 10 µM single dose
Procedure: as §1, §2

SR = details: Leukemia SR, 10 µM single dose
Procedure: as §1, §2

IGROV1 = details: Ovarian IGROV1, 10 µM single dose
Procedure: as §1, §2

HCT-116 = details: Colon HCT-116, 10 µM single dose
Procedure: as §1, §2

MDA-MB-231/ATCC = details: Breast MDA-MB-231/ATCC, 10 µM single dose
Procedure: as §1, §2

SK-MEL-2 = details: Melanoma SK-MEL-2, 10 µM single dose
Procedure: as §1, §2

UACC-62 = details: Melanoma UACC-62, 10 µM single dose
Procedure: as §1, §2

HCC-2998 = details: Colon HCC-2998, 10 µM single dose
Procedure: as §1, §2

SK-OV-3 = details: Ovarian SK-OV-3, 10 µM single dose
Procedure: as §1, §2

ACHN = details: Renal ACHN, 10 µM single dose
Procedure: as §1, §2

786-0 = details: Renal 786-0, 10 µM single dose
Procedure: as §1, §2

UACC-257 = details: Melanoma UACC-257, 10 µM single dose
Procedure: as §1, §2

MOLT-4 = details: Leukemia MOLT-4, 10 µM single dose
Procedure: as §1, §2

MALME-3M = details: Melanoma MALME-3M, 10 µM single dose
Procedure: as §1, §2

COLO 205 = details: Colon COLO 205, 10 µM single dose
Procedure: as §1, §2

LOX IMVI = details: Melanoma LOX IMVI, 10 µM single dose
Procedure: as §1, §2

NCI-H226 = details: NSCLC NCI-H226, 10 µM single dose
Procedure: as §1, §2

M14 = details: Melanoma M14, 10 µM single dose
Procedure: as §1, §2

KM12 = details: Colon KM12, 10 µM single dose
Procedure: as §1, §2

SF-539 = details: CNS SF-539, 10 µM single dose
Procedure: as §1, §2

HOP-62 = details: NSCLC HOP-62, 10 µM single dose
Procedure: as §1, §2

SNB-19 = details: CNS SNB-19, 10 µM single dose
Procedure: as §1, §2

T-47D = details: Breast T-47D, 10 µM single dose
Procedure: as §1, §2

NCI-H522 = details: NSCLC NCI-H522, 10 µM single dose
Procedure: as §1, §2

EKVX = details: NSCLC EKVX, 10 µM single dose
Procedure: as §1, §2

RXF 393 = details: Renal RXF 393, 10 µM single dose
Procedure: as §1, §2

RPMI-8226 = details: Leukemia RPMI-8226, 10 µM single dose
Procedure: as §1, §2

MCF7 = details: Breast MCF7, 10 µM single dose
Procedure: as §1, §2

SF-268 = details: CNS SF-268, 10 µM single dose
Procedure: as §1, §2

Row | Compound | Growth Percent (OVCAR-3) | Growth Percent (HOP-92) | Growth Percent (SF-295) | Growth Percent (SW-620) | Growth Percent (A549/ATCC) | Growth Percent (HS 578T) | Growth Percent (DU-145) | Growth Percent (TK-10) | Growth Percent (CAKI-1) | Growth Percent (SR) | Growth Percent (IGROV1) | Growth Percent (HCT-116) | Growth Percent (MDA-MB-231/ATCC) | Growth Percent (SK-MEL-2) | Growth Percent (UACC-62) | Growth Percent (HCC-2998) | Growth Percent (SK-OV-3) | Growth Percent (ACHN) | Growth Percent (786-0) | Growth Percent (UACC-257) | further results
1 | Cc1c(C(=O)NCCCC(=O)NO)sc2ncnc(Nc3ccccc3)c12 [Compound 20b, N-(4-(hydroxyamino)-4-oxobutyl)-5-methyl-4-(phenylamino)thieno[2,3-d]pyrimidine-6-carboxamide] | 109.4% and 109.49% | 110.5% and 110.53% | 90.6% and 90.64% | 102.0% and 102.07% | 98.8% and 98.87% | 102.2% and 102.24% | 111% and 111.21% | 111.2% and 111.26% | 96.9% and 96.93% | 99.2% and 99.22% | 107.3% and 107.35% | 104.9% and 104.93% | 110.9% and 110.91% | 102.9% | 96.8% and 96.85% | 104.7% and 104.78% | 125.1% and 125.12% | 103.8% and 103.87% | 113.5% and 113.55% | 103.9% and 103.93% | Growth Percent (MOLT-4): 109.4% and 109.45%; Growth Percent (MALME-3M): 111.9% and 111.93%; Growth Percent (COLO 205): 106.5% and 106.57%; Growth Percent (LOX IMVI): 96.5% and 96.54%; Growth Percent (NCI-H226): 97.5% and 97.52%; Growth Percent (M14): 112.3% and 112.35%; Growth Percent (KM12): 101.4% and 101.41%; Growth Percent (SF-539): 96.9% and 96.91%; Growth Percent (HOP-62): 100.8% and 100.81%; Growth Percent (SNB-19): 97.5% and 97.59%; Growth Percent (T-47D): 104.4% and 104.47%; Growth Percent (NCI-H522): 89.7% and 89.77%; Growth Percent (EKVX): 89.6% and 89.65%; Growth Percent (RXF 393): 98.6% and 98.66%; Growth Percent (RPMI-8226): 102.2%; Growth Percent (MCF7): 92.1% and 92.13%; Growth Percent (SF-268): 97.1% and 97.16%
2 | Cc1c(C(=O)NO)sc2ncnc(Nc3ccc(NC(=S)Nc4ccccc4)cc3)c12 [Compound 7d, 1–(4-(6-(hydroxycarbamoyl)-5-methylthieno[2,3-d]pyrimidin-4-ylamino)phenyl)-3-phenylthiourea] | 111.0% and 111.03% | 114.8% and 114.88% | 98.3% and 98.32% | 104.8% and 104.86% | 101.3% and 101.33% | 104.5% and 104.57% | 106.96% | 106.3% and 106.37% | 96.5% and 96.56% | 110.3% and 110.34% | 111.5% and 111.55% | 105.2% and 105.28% | 94.9% and 94.96% | 104.1% and 104.16% | 94.9% and 94.97% | 99.8% and 99.86% | 120.7% and 120.74% | 105.4% and 105.43% | 99.1% and 99.11% | 99.4% and 99.45% | Growth Percent (MOLT-4): 111.3% and 111.35%; Growth Percent (MALME-3M): 99.4% and 99.48%; Growth Percent (COLO 205): 112.9% and 112.97%; Growth Percent (LOX IMVI): 93.7% and 93.76%; Growth Percent (NCI-H226): 103.8% and 103.88%; Growth Percent (M14): 104.3%; Growth Percent (KM12): 102.1% and 102.11%; Growth Percent (SF-539): 100.3% and 100.31%; Growth Percent (HOP-62): 100.8% and 100.85%; Growth Percent (SNB-19): 96.4% and 96.45%; Growth Percent (T-47D): 112.9% and 112.91%; Growth Percent (NCI-H522): 92.1% and 92.13%; Growth Percent (EKVX): 93.6% and 93.61%; Growth Percent (RXF 393): 103.7% and 103.72%; Growth Percent (MCF7): 95.2% and 95.28%; Growth Percent (SF-268): 98.1% and 98.17%
3 | Cc1c(C(=O)NO)sc2ncnc(Nc3ccc(F)c(Cl)c3)c12 [Compound 15d, 4–(3-chloro-4-fluorophenylamino)-N-hydroxy-5-methylthieno[2,3-d]pyrimidine-6-carboxamide] | 108.5% and 108.52% | 120.5% and 120.52% | 93.7% and 93.74% | 108.2% and 108.22% | 100.7% and 100.72% | 102.4% and 102.42% | 101.9% and 101.96% | 118.5% and 118.53% | 90.4% and 90.42% | 101.4% and 101.45% | 103.9% and 103.95% | 106.8% | 97.2% and 97.25% | 100.9% | 88.5% and 88.53% | 102.4% and 102.42% | 114.4% and 114.45% | 97.6% and 97.62% | 94.4% and 94.41% | 109.9% and 109.91% | Growth Percent (MOLT-4): 110.0% and 110.03%; Growth Percent (MALME-3M): 116.1% and 116.15%; Growth Percent (COLO 205): 112.3% and 112.34%; Growth Percent (LOX IMVI): 101.3% and 101.32%; Growth Percent (NCI-H226): 103.2% and 103.24%; Growth Percent (M14): 110.2% and 110.24%; Growth Percent (KM12): 102.3% and 102.31%; Growth Percent (SF-539): 98.5% and 98.57%; Growth Percent (HOP-62): 99.3%; Growth Percent (SNB-19): 91.8%; Growth Percent (T-47D): 95.4% and 95.46%; Growth Percent (NCI-H522): 88.1% and 88.16%; Growth Percent (EKVX): 88.0% and 88.08%; Growth Percent (RXF 393): 100.3% and 100.37%; Growth Percent (MCF7): 93.8% and 93.88%; Growth Percent (SF-268): 96.5%
